Source: patent US20100143506A1, “APPARATUS AND METHOD FOR TREATMENT OF MICROORGANISMS DURING SUGAR PRODUCTION AND SUGAR-BASED FE[…]” (priority 2008, published 2010)

Assays:
bacteria = experiment: Plant trial: lactate in the fermentor while the thin juice line is treated with chlorine dioxide
Experimental: A thin juice line at a sugar plant that fed into a distillery for fermentation was treated with chlorine dioxide according to the present method. Previously the thin juice line had been treated using sulfuric acid to decrease the pH. The trial evaluated the bacterial efficacy of chlorine dioxide at an elevated pH in order to reduce sulfuric acid use without causing a detrimental effect to the yeast or fermentation.
In the trial, 90% pure chlorine dioxide solution was generated. Twenty parts per million (ppm) of chlorine dioxide was introduced into the thin juice line. Thin juice samples were collected before during and after the trial. The samples were examined for chlorite, chlorate and chloride residuals.
During the trial, bacterial samples were also collected and analyzed at various locations in the system.
The data indicates a low level of lactate before chlorine dioxide was introduced at the normal pH of 3.5. […] On day 18 the equipment had to be shutdown due to an unrelated issue.

fermentation = conditions: cited from earlier work
Weisella confusa = conditions: cited from earlier work

[O][Cl+][O-] [chlorine dioxide]
Lactate Concentration (bacteria; Day of Trial 4, Fifth location in the Fermentor): 0.6 g/L | Lactate Concentration (bacteria; Day of Trial 4, First location in the Fermentor): 0.39 g/L | Lactate Concentration (bacteria; Day of Trial 4, Fourth location in the Fermentor): 0.58 g/L | Lactate Concentration (bacteria; Day of Trial 4, Second location in the Fermentor): 0.6 g/L | Lactate Concentration (bacteria; Day of Trial 4, Third location in the Fermentor): 0.6 g/L | Lactate Concentration (bacteria; Day of Trial 5, Fifth location in the Fermentor): 0.75 g/L | Lactate Concentration (bacteria; Day of Trial 5, First location in the Fermentor): 0.44 g/L | Lactate Concentration (bacteria; Day of Trial 5, Fourth location in the Fermentor): 0.69 g/L | Lactate Concentration (bacteria; Day of Trial 5, Second location in the Fermentor): 0.66 g/L | Lactate Concentration (bacteria; Day of Trial 5, Third location in the Fermentor): 0.71 g/L | Lactate Concentration (bacteria; Day of Trial 6, Fifth location in the Fermentor): 0.69 g/L | Lactate Concentration (bacteria; Day of Trial 6, First location in the Fermentor): 0.39 g/L | Lactate Concentration (bacteria; Day of Trial 6, Fourth location in the Fermentor): 0.71 g/L | Lactate Concentration (bacteria; Day of Trial 6, Second location in the Fermentor): 0.54 g/L | Lactate Concentration (bacteria; Day of Trial 6, Third location in the Fermentor): 0.62 g/L | Lactate Concentration (bacteria; Day of Trial 7, Fifth location in the Fermentor): 0.9 g/L | Lactate Concentration (bacteria; Day of Trial 7, First location in the Fermentor): 0.51 g/L | Lactate Concentration (bacteria; Day of Trial 7, Fourth location in the Fermentor): 0.88 g/L | Lactate Concentration (bacteria; Day of Trial 7, Second location in the Fermentor): 0.76 g/L | Lactate Concentration (bacteria; Day of Trial 7, Third location in the Fermentor): 0.81 g/L | Lactate Concentration (bacteria; Day of Trial 8, Fifth location in the Fermentor): 0.75 g/L | Lactate Concentration (bacteria; Day of Trial 8, First location in the Fermentor): 0.44 g/L | Lactate Concentration (bacteria; Day of Trial 8, Fourth location in the Fermentor): 0.7 g/L | Lactate Concentration (bacteria; Day of Trial 8, Second location in the Fermentor): 0.55 g/L | Lactate Concentration (bacteria; Day of Trial 8, Third location in the Fermentor): 0.64 g/L | Lactate Concentration (bacteria; Day of Trial 9, Fifth location in the Fermentor): 0.83 g/L | Lactate Concentration (bacteria; Day of Trial 9, First location in the Fermentor): 0.5 g/L | Lactate Concentration (bacteria; Day of Trial 9, Fourth location in the Fermentor): 0.78 g/L | Lactate Concentration (bacteria; Day of Trial 9, Second location in the Fermentor): 0.68 g/L | Lactate Concentration (bacteria; Day of Trial 9, Third location in the Fermentor): 0.74 g/L | Lactate Concentration (bacteria; Day of Trial 10, Fifth location in the Fermentor): 0.84 g/L | Lactate Concentration (bacteria; Day of Trial 10, First location in the Fermentor): 0.55 g/L | Lactate Concentration (bacteria; Day of Trial 10, Fourth location in the Fermentor): 0.83 g/L | Lactate Concentration (bacteria; Day of Trial 10, Second location in the Fermentor): 0.77 g/L | Lactate Concentration (bacteria; Day of Trial 10, Third location in the Fermentor): 0.82 g/L | Lactate Concentration (bacteria; Day of Trial 11, Fifth location in the Fermentor): 0.8 g/L | Lactate Concentration (bacteria; Day of Trial 11, First location in the Fermentor): 0.4 g/L | Lactate Concentration (bacteria; Day of Trial 11, Fourth location in the Fermentor): 0.65 g/L | Lactate Concentration (bacteria; Day of Trial 11, Second location in the Fermentor): 0.5 g/L | Lactate Concentration (bacteria; Day of Trial 11, Third location in the Fermentor): 0.55 g/L | Lactate Concentration (bacteria; Day of Trial 13, Fifth location in the Fermentor): 0.42 g/L | Lactate Concentration (bacteria; Day of Trial 13, First location in the Fermentor): 0.22 g/L | Lactate Concentration (bacteria; Day of Trial 13, Fourth location in the Fermentor): 0.39 g/L | Lactate Concentration (bacteria; Day of Trial 13, Second location in the Fermentor): 0.33 g/L | Lactate Concentration (bacteria; Day of Trial 13, Third location in the Fermentor): 0.36 g/L | Lactate Concentration (bacteria; Day of Trial 14, Fifth location in the Fermentor): 0.51 g/L | Lactate Concentration (bacteria; Day of Trial 14, First location in the Fermentor): 0.22 g/L | Lactate Concentration (bacteria; Day of Trial 14, Fourth location in the Fermentor): 0.4 g/L | Lactate Concentration (bacteria; Day of Trial 14, Second location in the Fermentor): 0.36 g/L | Lactate Concentration (bacteria; Day of Trial 14, Third location in the Fermentor): 0.37 g/L | Lactate Concentration (bacteria; Day of Trial 15, Fifth location in the Fermentor): 0.5 g/L | Lactate Concentration (bacteria; Day of Trial 15, First location in the Fermentor): 0.22 g/L | Lactate Concentration (bacteria; Day of Trial 15, Fourth location in the Fermentor): 0.4 g/L | Lactate Concentration (bacteria; Day of Trial 15, Second location in the Fermentor): 0.32 g/L | Lactate Concentration (bacteria; Day of Trial 15, Third location in the Fermentor): 0.34 g/L | Lactate Concentration (bacteria; Day of Trial 16, Fifth location in the Fermentor): 0.6 g/L | Lactate Concentration (bacteria; Day of Trial 16, First location in the Fermentor): 0.3 g/L | Lactate Concentration (bacteria; Day of Trial 16, Fourth location in the Fermentor): 0.5 g/L | Lactate Concentration (bacteria; Day of Trial 16, Second location in the Fermentor): 0.4 g/L | Lactate Concentration (bacteria; Day of Trial 16, Third location in the Fermentor): 0.45 g/L | Lactate Concentration (bacteria; Day of Trial 17, Fifth location in the Fermentor): 0.67 g/L | Lactate Concentration (bacteria; Day of Trial 17, First location in the Fermentor): 0.29 g/L | Lactate Concentration (bacteria; Day of Trial 17, Fourth location in the Fermentor): 0.57 g/L | Lactate Concentration (bacteria; Day of Trial 17, Second location in the Fermentor): 0.43 g/L | Lactate Concentration (bacteria; Day of Trial 17, Third location in the Fermentor): 0.5 g/L | Lactate Concentration (bacteria; Day of Trial 18, Fifth location in the Fermentor): 0.62 g/L | Lactate Concentration (bacteria; Day of Trial 18, First location in the Fermentor): 0.43 g/L | Lactate Concentration (bacteria; Day of Trial 18, Fourth location in the Fermentor): 0.6 g/L | Lactate Concentration (bacteria; Day of Trial 18, Second location in the Fermentor): 0.48 g/L | Lactate Concentration (bacteria; Day of Trial 18, Third location in the Fermentor): 0.54 g/L | Lactate Concentration (bacteria; Day of Trial 19, Fifth location in the Fermentor): 1.1 g/L | Lactate Concentration (bacteria; Day of Trial 19, First location in the Fermentor): 0.4 g/L | Lactate Concentration (bacteria; Day of Trial 19, Fourth location in the Fermentor): 0.8 g/L | Lactate Concentration (bacteria; Day of Trial 19, Second location in the Fermentor): 0.6 g/L | Lactate Concentration (bacteria; Day of Trial 19, Third location in the Fermentor): 0.7 g/L | Lactate Concentration (bacteria; Day of Trial 20, Fifth location in the Fermentor): 0.85 g/L | Lactate Concentration (bacteria; Day of Trial 20, First location in the Fermentor): 0.55 g/L | Lactate Concentration (bacteria; Day of Trial 20, Fourth location in the Fermentor): 0.5 g/L | Lactate Concentration (bacteria; Day of Trial 20, Second location in the Fermentor): 0.7 g/L | Lactate Concentration (bacteria; Day of Trial 20, Third location in the Fermentor): 0.75 g/L | Lactate Concentration (bacteria; Day of Trial 21, Fifth location in the Fermentor): 1.36 g/L | Lactate Concentration (bacteria; Day of Trial 21, First location in the Fermentor): 0.9 g/L | Lactate Concentration (bacteria; Day of Trial 21, Fourth location in the Fermentor): 1.35 g/L | Lactate Concentration (bacteria; Day of Trial 21, Second location in the Fermentor): 1.16 g/L | Lactate Concentration (bacteria; Day of Trial 21, Third location in the Fermentor): 1.24 g/L | Lactate Concentration (bacteria; Day of Trial 22, Fifth location in the Fermentor): 1.66 g/L | Lactate Concentration (bacteria; Day of Trial 22, First location in the Fermentor): 1.31 g/L | Lactate Concentration (bacteria; Day of Trial 22, Fourth location in the Fermentor): 2.04 g/L | Lactate Concentration (bacteria; Day of Trial 22, Second location in the Fermentor): 1.73 g/L | Lactate Concentration (bacteria; Day of Trial 22, Third location in the Fermentor): 2.01 g/L | Lactate Concentration (bacteria; Day of Trial 23, Fifth location in the Fermentor): 2.15 g/L | Lactate Concentration (bacteria; Day of Trial 23, First location in the Fermentor): 1.39 g/L | Lactate Concentration (bacteria; Day of Trial 23, Fourth location in the Fermentor): 2.19 g/L | Lactate Concentration (bacteria; Day of Trial 23, Second location in the Fermentor): 1.75 g/L | Lactate Concentration (bacteria; Day of Trial 23, Third location in the Fermentor): 2.01 g/L | Lactate Concentration (bacteria; Day of Trial 24, Fifth location in the Fermentor): 2.13 g/L | Lactate Concentration (bacteria; Day of Trial 24, First location in the Fermentor): 1.12 g/L | Lactate Concentration (bacteria; Day of Trial 24, Fourth location in the Fermentor): 2 g/L | Lactate Concentration (bacteria; Day of Trial 24, Second location in the Fermentor): 1.41 g/L | Lactate Concentration (bacteria; Day of Trial 24, Third location in the Fermentor): 1.73 g/L | lactate trend once treatment was started (bacteria; chlorine dioxide at 20 ppm with a pH elevation to 4): trended downward

Virginiamycin
concentration that will suppress fermentation (fermentation): over 6 mg/L | concentration required to inhibit growth of Weisella confusa (Weisella confusa): over 25 mg/L
